Source: patent publication US5164411A, “Pyrethroid compositions” (priority 1991, dated 1992)
Converted amounts (≈) assume the structure as drawn.

What was measured:
[1] = tested on: rainbow trout (Oncorhynchus mykiss); assay: Ninety-six-hour flow-through acute toxicity, rainbow trout; assay type: in vivo
Description: (§1) Ninety-six-hour flow-through acute toxicity studies of both cypermethrin and sigma-cypermethrin were conducted in the rainbow trout (Oncorhynchus mykiss) and in the sheepshead minnow (Cyprinodon variagatus) to determine the median-lethal-concentration (LC50) resulting from continuous exposure. For the rainbow trout the exposure medium was well water; for the sheepshead minnow, filtered seawater. Each group of 20 fish (10 per replicate aquarium) was exposed either to one of five concentrations of pyrethroid delivered in a diluter system in dimethylformamide (DMF), to 30 μL/L DMF in the exposure medium (solvent control), or to the exposure medium alone (control). Observations for mortality, morbidity, and other overt signs of toxicity were determined at prescribed intervals. Concentrations of the test materials were measured at the beginning and end of the exposure using a validated HPLC method. The cypermethrin isomer content (weight %) of the sigma-cypermethrin technical product used in this study was total isomers--88.2%, S-isomers--82%, cis/trans ratio--53/47.

[2] = tested on: mammals and certain species of fish; assay: Mammalian toxicology and fish toxicity, summary of the tests; assay type: in vivo, rat; fish; details: at rates giving commercial control of target crop insects
Description: In the 90-day feeding study, conducted in compliance with EPA guideline 82-1, the compound under test was administered continuously in the diet to groups of rats for at least ninety days at concentrations of 0, 150, and 1500 ppm to groups of fifteen Sprague-Dawley rats for cypermethrin and 0, 10, 50, 150, 250, 500, and 900 ppm to groups of ten Fisher 344 rats for sigma-cypermethrin. (The rates for sigma-cypermethrin were lower, because it was expected to be more toxic than cypermethrin.) The cypermethrin isomer content (weight %) of the sigma-cypermethrin technical product used in this study was total isomers--88.2%, S-isomers--82%, cis/trans ratio--53/47. Individual body weight and food consumption values were recorded weekly. At termination, hematology and clinical chemistry determinations were conducted and organ weights were obtained for adrenals, brain, heart, kidneys, liver, and ovaries or testes. […]
Multigeneration studies were conducted in compliance with EPA guideline 83-4 and provide information on reproductive parameters as well as neonatal morbidity and mortality for multiple generations. […] Body weights and food consumption were recorded at regular intervals. […]

[3] = tested on: sheepshead minnow (Cyprinodon variagatus); assay: Ninety-six-hour flow-through acute toxicity, sheepshead minnow; assay type: in vivo
Description: as §1

certain insect species = assay: Insecticidal activity, overall statement; assay type: in vivo
Description: (§2) Cypermethrin and sigma-cypermethrin were tested by foliar application at various concentrations in aqueous solutions containing 9.75% acetone and 0.25% octylphenoxypolyethoxyethanol. Insect species utilized included the cabbage looper (Trichoplusia ni), southern armyworm (Spodoptera eridania), Mexican bean beetle (Epilachna varivestis), tobacco budworm (Heliothis virescens), and corn earworm (Heliothis zea).
(§3) For all insects, pinto beans (Phaseolus vulgaris) plants were treated with the test solutions. The test solutions were applied with a sprayer to the upper and lower surfaces of the plant leaves to runoff. The plants were then allowed to dry and were severed at the base of the stem before being placed in cups. Ten second instar individuals of the appropriate insect species, except the tobacco budworm and corn earworm, were placed in each cup and the cup covered. Tests with the tobacco budworm and corn earworm used four replicates with each replicate containing five second instar insects. In all tests, mortality was read 48 hours later. The sigma-cypermethrin used in the foliar evaluations was the product of Example 2.

[4] = tested on: cabbage looper (Trichoplusia ni); assay: Foliar evaluation, cabbage looper (CL); assay type: in vivo; details: for LC50: Trichoplusia ni, foliar, pinto beans, mortality at 48 hours
Description: as §2, §3

rats [5] = assay: Multigeneration study; assay type: in vivo
Description: Multigeneration studies were conducted in compliance with EPA guideline 83-4 and provide information on reproductive parameters as well as neonatal morbidity and mortality for multiple generations. Wistar rats were fed diets, throughout the study, containing 0, 50, 150, and 750 ppm of cypermethrin (the top dose level was 1000 ppm for the first 12 weeks, but was lowered to 750 ppm for the remainder of the study owing to toxicity). Similarly, Sprague-Dawley rats were fed diets containing 0, 7.5, 25, 100, 375, and 750 ppm of sigma-cypermethrin. (Again, the rates are lower for sigma-cypermethrin, because it was expected to be more toxic.) The cypermethrin isomer content (weight %) of the sigma-cypermethrin technical product used in this study was total isomers--89.1%, S-isomers--82%, cis/trans ratio--51/49. […] Body weights and food consumption were recorded at regular intervals.
The breeding of parental and subsequent generations in each study was initiated with 30 females. In both studies appropriate dietary concentrations of test material were provided during cohabitation. Exposure of the parental males of each generation continued until a scheduled sacrifice following completion of the cohabitation periods, while exposure of parental females continued through to weaning of pups. Pups were weaned at postnatal day 28 in both studies.

rats [6] = assay: 90-day feeding study; assay type: in vivo; details: for no observable effect level (NOEL): in diet, at least ninety days
Description: In the 90-day feeding study, conducted in compliance with EPA guideline 82-1, the compound under test was administered continuously in the diet to groups of rats for at least ninety days at concentrations of 0, 150, and 1500 ppm to groups of fifteen Sprague-Dawley rats for cypermethrin and 0, 10, 50, 150, 250, 500, and 900 ppm to groups of ten Fisher 344 rats for sigma-cypermethrin. (The rates for sigma-cypermethrin were lower, because it was expected to be more toxic than cypermethrin.) The cypermethrin isomer content (weight %) of the sigma-cypermethrin technical product used in this study was total isomers--88.2%, S-isomers--82%, cis/trans ratio--53/47. Individual body weight and food consumption values were recorded weekly. At termination, hematology and clinical chemistry determinations were conducted and organ weights were obtained for adrenals, brain, heart, kidneys, liver, and ovaries or testes. Histopathological examination of approximately 40 tissues was conducted on all animals in the control group and in the highest dose group in the cypermethrin study and in the highest two groups (500 and 900 ppm) in the sigma-cypermethrin study. In addition, histopathological examination was performed on the lungs, liver, and kidneys of animals in the mid-dose groups of both studies ([…] and 10, 50, 150, and 250 ppm for sigma-cypermethrin). An ophthalmic examination was conducted on all animals prior to initiation of treatment and prior to final sacrifice.

Lepidoptera = assay: Foliar evaluation, average over Lepidoptera; assay type: in vivo; details: laboratory
Description: as §2, §3

SMILES: CC1(C)C(C=C(Cl)Cl)C1C(=O)O[C@H](C#N)c1cccc(Oc2ccccc2)c1 (mixture of isomers) [sigma-cypermethrin, (S)(cyano)(3-phenoxyphenyl)methyl cis/trans-3-(2,2-dichloroethenyl)-2,2-dimethylcyclopropanecarboxylate]
- ratio of the cypermethrin LC50 to the sigma-cypermethrin LC50 [1]: 1.3
- toxicity relative to cypermethrin [2]: significantly less toxic to mammals and certain species of fish
- ratio of the cypermethrin LC50 to the sigma-cypermethrin LC50 [3]: 1.64
- effectiveness relative to cypermethrin (certain insect species): twice as effective as cypermethrin
- LC50 [4]: 1.4 µg/mL
- Relative Potency ([4]; vs cypermethrin, CL): 1.6
- mortality of F1 generation litters (rats [5]; 750 ppm in diet, 28-day lactation and first week postweaning): excessive mortality
- NOEL relative to that of cypermethrin (rats [5]; multigeneration): twice that of cypermethrin
- amount required to show an effect on rats relative to that expected from effect on insects (rats [5]; multigeneration): four times
- amount required to show an effect on rats relative to that expected from effect on insects (rats [6]; 90-day feeding): more than three times
- NOEL relative to the cypermethrin value (rats [6]; 90-day feeding, rats): more than one and a half times the cypermethrin value
- no observable effect level (NOEL) (rats [6]): 250 ppm
- average effectiveness relative to cypermethrin (Lepidoptera): 1.9 times

SMILES: CC1(C)C(C=C(Cl)Cl)C1C(=O)OC(C#N)c1cccc(Oc2ccccc2)c1 (centres unmarked) [cypermethrin, (cyano)(3-phenoxyphenyl)methyl 3-(2,2-dichloroethenyl)-2,2-dimethylcyclopropanecarboxylate, reference compound]
- LC50 [4]: 2.3 µg/mL (≈ 5.52 µM)
- toxicity at top dose level (rats [5]; 1000 ppm in diet, first 12 weeks, lowered to 750 ppm): toxicity
- NOEL (rats [5]; in diet, multiple generations): 50 ppm
- no observable effect level (NOEL) (rats [6]): 150 ppm
